In patent publication US20120009320A1, “COMPOSITIONS COMPRISING MONATIN AND CALCIUM” (priority 2009, published 2012):
Marks after values point to notes of the source that are not given here. Peptide text beside a SMILES is read from it.

Legend:
panelists = assay: Sweetness matching of monatin/salt combinations in water pH 7 and citric/citrate buffer pH 3, Examples 3-5; assay type: in vivo, human
Experimental: Test and reference solutions were prepared in the same medium. The SEVs of monatin/salt combinations at the appropriate concentrations were measured and compared to the SEV of monatin measured in the absence of any salts. […] Monatin-containing test samples and sucrose references were prepared in the same medium. Based on the previous observations that the sweetness of monatin relative to sucrose is sweeter at acidic pH, this study was carried out under two pH conditions; specifically, in water at pH 7-7.5 and in a citric/citrate buffer at pH 3.0. 2R,4R-Monatin mono potassium salt was used as an illustrative form of monatin for the experiments below. All monatin solutions were prepared ‘as is’, i.e., a 40 ppm monatin solution is 40 ppm of monatin mono potassium salt. A sweetness matching procedure was adopted. […] Each test sample was either monatin control or monatin plus designated salt at the stated concentration. Panelists were instructed to taste the test sample and then to identify the reference sample that matched the perceived sweetness of the test sample. If the sweetness of the test sample was judged to fall between that of two references, panelists were instructed to estimate sweetness to one decimal point. Panelists evaluated each sample in duplicate. Results for each test sample were averaged. […] The five samples were tested at pH 7 (water medium) and at pH 3 (citric/citrate buffer). […] The weight percent of calcium in the salt is different for each of the calcium salts. As such, the weight percent of the calcium salt in each sample is calculated in order to determine how much salt is needed to deliver 1200 ppm of calcium cations. […] The weight percent of the other calcium salts is similarly calculated based on the molar weight percent of calcium in the calcium salt. […] The samples were created at pH 3 and pH 7. The impact of other metal ions, specifically potassium and magnesium, (i.e. […] These ions were tested in the form and concentrations found in cow's milk.

[1] = Sweetness of monatin stereoisomers relative to sucrose by weight (from SEV); assay type: in vivo; settings: general statement of the description
Experimental: As used herein, “sucrose equivalency value”, or SEV, is a measure of sweetness. The SEV is the concentration (% w/v) of a sucrose solution that gives a degree of sweetness that is perceived to be the same degree of sweetness as that of a test sample. For purposes of this disclosure, the SEV of an aqueous or dairy solution containing monatin is determined through comparison of the monatin-containing solution to a series of sucrose containing solutions prepared in the same medium (see Example 1).
Monatin-containing compositions are described herein as being “X” times as sweet as sucrose. The various stereoisomers of monatin are also described as being “X” times sweeter than sucrose. These values are determined from the SEV of the compositions.

[2] = Schiffman, Physiology & Behavior 68 (2000); cited from earlier work
[3] = 200 ppm calcium (from calcium chloride), 40 ppm monatin, pH 3.0
[4] = 200 ppm calcium (from calcium chloride), 40 ppm monatin, pH 7.0
[5] = 400 ppm calcium (from calcium chloride), 40 ppm monatin, pH 3.0
[6] = 400 ppm calcium (from calcium chloride), 40 ppm monatin, pH 7.0
[7] = 800 ppm calcium (from calcium chloride), 40 ppm monatin, pH 3.0
[8] = 800 ppm calcium (from calcium chloride), 40 ppm monatin, pH 7.0
[9] = 1200 ppm calcium (from calcium chloride), 40 ppm monatin, pH 3.0
[10] = 1200 ppm calcium (from calcium chloride), 40 ppm monatin, pH 7.0
[11] = calcium salt at 1200 ppm Ca2+ with 40 ppm monatin vs monatin only, pH 3.0
[12] = calcium salt at 1200 ppm Ca2+ with 40 ppm monatin vs monatin only, pH 7.0
[13] = calcium salt at 1200 ppm Ca2+ with 40 ppm monatin, pH 3.0
[14] = calcium salt at 1200 ppm Ca2+ with 40 ppm monatin, pH 7.0
[15] = salt (1450 ppm K+ or 170 ppm Mg2+) with 40 ppm monatin vs monatin only, pH 3.0
[16] = salt (1450 ppm K+ or 170 ppm Mg2+) with 40 ppm monatin, pH 3.0, KCl solutions very salty, estimates difficult
[17] = salt (1450 ppm K+ or 170 ppm Mg++) with 40 ppm monatin vs monatin only, pH 7.0
[18] = salt (1450 ppm K+ or 170 ppm Mg++) with 40 ppm monatin, pH 7.0, KCl solutions very salty, estimates difficult

For [Ca+2].[Cl-].[Cl-] [Calcium chloride], the “Sucrose Equivalency Value” (panelists; [3]) was 9.5%, the “Sweetness Enhancement” value (panelists; [3]) was 10% and the “Sucrose Equivalency Value” (panelists; [4]) was 10.0%. For the same molecule, the “Sweetness Enhancement” value (panelists; [4]) was 19%, the “Sucrose Equivalency Value” (panelists; [5]) was 10.0% and the “Sweetness Enhancement” value (panelists; [5]) was 16%. For the same molecule, the “Sucrose Equivalency Value” (panelists; [6]) was 10.2%, the “Sweetness Enhancement” value (panelists; [6]) was 21% and the “Sucrose Equivalency Value” (panelists; [7]) was 10.2%. The “Sweetness Enhancement” value (panelists; [7]) was 19%, the “Sucrose Equivalency Value” (panelists; [8]) was 10.2% and the “Sweetness Enhancement” value (panelists; [8]) was 21%. The “Sucrose Equivalency Value” (panelists; [9]) was 10.3%, the “Sweetness Enhancement” value (panelists; [9]) was 20% and the “Sucrose Equivalency Value” (panelists; [10]) was 10.1%. For the same molecule, the “Sweetness Enhancement” value (panelists; [10]) was 20%, the “Sweetness Enhancement” value (panelists; 1600 ppm calcium (from calcium chloride), 40 ppm monatin, pH 3.0) was 19% and the “Sucrose Equivalency Value” (panelists; 1600 ppm calcium (from calcium chloride), 40 ppm monatin, pH 3.0, solutions very salty, SEV estimate very difficult) was 10.2** %. The “Sweetness Enhancement” value (panelists; 1600 ppm calcium (from calcium chloride), 40 ppm monatin, pH 7.0) was 21%, the “Sucrose Equivalency Value” (panelists; 1600 ppm calcium (from calcium chloride), 40 ppm monatin, pH 7.0, solutions very salty, SEV estimate very difficult) was 10.2** % and the “Sweetness Enhancement” value (panelists; [11]) was 20%. The “Sweetness Enhancement” value (panelists; [12]) was 20%, the “Sucrose Equivalency Value” (panelists; [13]) was 10.3% and the “Sucrose Equivalency Value” (panelists; [14]) was 10.1%.

With CC(O)C(=O)[O-].CC(O)C(=O)[O-].[Ca+2] (stereo not drawn) [Calcium lactate] the “Sweetness Enhancement” value (panelists; [11]) was 10%, the “Sweetness Enhancement” value (panelists; [12]) was 13% and the “Sucrose Equivalency Value” (panelists; [13]) was 9.5%. The “Sucrose Equivalency Value” (panelists; [14]) was 9.5%.

In the case of [Cl-].[K+] [Potassium chloride], the “Sweetness Enhancement” value (panelists; [15]) is reported as 7%, the “Sucrose Equivalency Value” (panelists; [16]) is reported as 9.2% and the “Sweetness Enhancement” value (panelists; [17]) is reported as 4%. The “Sucrose Equivalency Value” (panelists; [18]) was 8.7%.

In the case of NC(CC(O)(Cc1c[nH]c2ccccc12)C(=O)O)C(=O)O (stereo not drawn) [S,S stereoisomer of monatin, 4-amino-2-hydroxy-2-(1H-indol-3-ylmethyl)-pentanedioic acid], the “times sweeter than sucrose by weight” value [1] is reported as 50-200 times.

In the case of COC(=O)[C@H](Cc1ccccc1)NC(=O)[C@@H](N)CC(=O)O [aspartame] (HELM PEPTIDE1{D.F.[CO[*:1]]}$$$$V2.0), the “effect of the addition of calcium ions on the sweetness intensity of the sweetener” value [2] is given as “did not have an effect”.

For OC[C@H]1O[C@@](CO)(O[C@H]2O[C@H](CO)[C@@H](O)[C@H](O)[C@H]2O)[C@@H](O)[C@@H]1O [sucrose], the “effect of the addition of calcium ions on the sweetness intensity of the sweetener” value [2] is given as “did not have an effect”.

For Calcium gluconate, the “Sweetness Enhancement” value (panelists; [11]) was 7%, the “Sweetness Enhancement” value (panelists; [12]) was 13% and the “Sucrose Equivalency Value” (panelists; [13]) was 9.2%. The “Sucrose Equivalency Value” (panelists; [14]) was 9.5%.

With Magnesium gluconate the “Sweetness Enhancement” value (panelists; [15]) was 6%, the “Sucrose Equivalency Value” (panelists; [16]) was 9.1% and the “Sweetness Enhancement” value (panelists; [17]) was 9%. The “Sucrose Equivalency Value” (panelists; [18]) was 9.2%.

In the case of calcium, the “Sweetness Enhancement” value (panelists; [3]) is reported as 10% and the “Sweetness Enhancement” value (panelists; [4]) is reported as 19%.
